US7169411B1, “Composition for delivery of biological agents and methods for the preparation thereof” (The University of Nebraska Board of Regents, priority 1997, dated 2007)

Assay: Potentiometric binding isotherms of surfactants to polyethylene oxide-block-poly(sodium methacrylate)
Assay type: physicochemical
Details: FIG. 1
Description: While not wishing to be bound by any particular theory, it is believed that the above-described surfactants and block copolymers of opposite charge form stable complexes due to cooperative binding. (See, e.g., Goddard, In Interactions of Surfactants with Polymers and Proteins. Goddard and Ananthapadmanabhan, Eds., pp. 171 et seq., CRC Press, Boca Raton, Ann Arbor, London, Tokyo, 1992). Cooperative binding occurs in the sense that binding of surfactant molecules to the block copolymer is enhanced by the presence of other molecules of the same or a different surfactant already bound to the same copolymer. According to the cooperative binding mechanism which is believed to underlie this invention, surfactant binds electrostatically to the oppositely charged P-type segments of the block copolymer to form supramolecular complexes. […]
B. The binding isotherms of cetylpyridinium bromide (Sigma Co.) and dodecylpyridinium bromide (Sigma Co.) with the polyethylene oxide-block-poly(sodium methacrylate) copolymer were determined potentiometrically by using the following ion-selective electrode: Ag/AgCl | 1 M NH4NO3 agar bridge | reference solution (surfactant, 2.5·10^−4 M) | PVC membrane | sample solution | 1 M NH4NO3 agar bridge | Ag/AgCl. […] The electromotive force (emf) of the cell was measured with a digital Radiometer pHM-83 pH-meter. […]

CCCCCCCCCCCC[n+]1ccccc1.[Br-] [dodecylpyridinium bromide]
stability of the complex with the block copolymer relative to cetylpyridinium bromide: decreases the stability of the complex more than ten-fold
